Data: patent US8802597B2, “Herbicidal pyrimidines” (E I du Pont de Nemours and Company, priority 2003, dated 2014)
Where two headings read alike, the source gives them in different places.

Legend:
Assay in all cases: Test C pre/postemergence
Type in all cases: in vivo
[1] = system: Surinam grass (Brachiaria decumbens); conditions: Urochloa decumbens; for pest or weed control at 125 g/ha: 125 g ai/ha; for pest or weed control at 500 g/ha: 500 g ai/ha; for pest or weed control at 62 g/ha: 62 g ai/ha; for pest or weed control at 250 g/ha: 250 g ai/ha
Outline: (§1)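 Greenhouse pot test: seeds treated preemergence, or plants at 2–18 cm (1- to 4-leaf stage) treated postemergence, with compound in non-phytotoxic solvent plus surfactant. Visual rating versus untreated controls after 12–14 days, scale 0 (no effect) to 100 (complete control); dash means not tested.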

[2] = system: cocklebur (Xanthium strumarium); conditions: Xanthium strumarium; for pest or weed control at 125 g/ha: 125 g ai/ha; for pest or weed control at 250 g/ha: 250 g ai/ha; for pest or weed control at 500 g/ha: 500 g ai/ha
Outline: as §1

[3] = system: common (oilseed) sunflower (Helianthus annuus); conditions: Helianthus annuus, pre-emergence, Preemergence, read-out: Plant response rating, Sunflower
Outline: as §1

[4] = system: common ragweed (Ambrosia elatior); conditions: Ambrosia artemisiifolia; for pest or weed control at 62 g/ha: 62 g ai/ha; for pest or weed control at 125 g/ha: 125 g ai/ha; for pest or weed control at 250 g/ha: 250 g ai/ha; for pest or weed control at 500 g/ha: 500 g ai/ha
Outline: as §1

corn (Zea mays) = conditions: Zea mays; for Corn plant response rating (crop injury, 0 = no effect, 100 = complete kill) at 62 g/ha: 62 g ai/ha; for Corn plant response rating (crop injury, 0 = no effect, 100 = complete kill) at 125 g/ha: 125 g ai/ha; for Corn plant response rating (crop injury, 0 = no effect, 100 = complete kill) at 250 g/ha: 250 g ai/ha; for Corn plant response rating (crop injury, 0 = no effect, 100 = complete kill) at 500 g/ha: 500 g ai/ha
Outline: as §1

[5] = system: crabgrass (Digitaria sanguinalis); conditions: Digitaria sanguinalis; for pest or weed control at 62 g/ha: 62 g ai/ha; for pest or weed control at 125 g/ha: 125 g ai/ha; for pest or weed control at 250 g/ha: 250 g ai/ha; for pest or weed control at 500 g/ha: 500 g ai/ha
Outline: as §1

[6] = system: goosegrass (Eleusine indica); conditions: Eleusine indica, post-emergence, Postemergence, scale 0 to 100 (0 no effect, 100 complete control), read-out: Goosegrass plant response rating
Outline: as §1

[7] = post-emergence, Postemergence, scale 0 to 100 (0 no effect, 100 complete control), read-out: Surinam Grass plant response rating
[8] = post-emergence, Postemergence, scale 0 to 100, read-out: Plant response rating, Surinam Grass
[9] = pre-emergence, Preemergence, scale 0 to 100, read-out: Plant response rating, Surinam Grass
[10] = post-emergence, Postemergence, scale 0 to 100, read-out: Plant response rating, Cocklebur
[11] = pre-emergence, Preemergence, scale 0 to 100, read-out: Plant response rating, Cocklebur
[12] = post-emergence, Postemergence, scale 0 to 100 (0 no effect, 100 complete control), read-out: Ragweed plant response rating
[13] = post-emergence, Postemergence, scale 0 to 100, read-out: Plant response rating, Ragweed
[14] = pre-emergence, Preemergence, scale 0 to 100, read-out: Plant response rating, Ragweed
[15] = post-emergence, Postemergence, scale 0 to 100 (0 no effect, 100 complete control), read-out: Corn plant response rating
[16] = post-emergence, Postemergence, scale 0 to 100
[17] = pre-emergence, Preemergence, scale 0 to 100
[18] = post-emergence, Postemergence, scale 0 to 100 (0 no effect, 100 complete control), read-out: Crabgrass plant response rating
[19] = post-emergence, Postemergence, scale 0 to 100, read-out: Plant response rating, Crabgrass
[20] = pre-emergence, Preemergence, scale 0 to 100, read-out: Plant response rating, Crabgrass

For `Nc1nc(C2CC2)nc(C(=O)O)c1Br` [Compound 8], the pest or weed control at 125 g/ha [1, 7] was 65%, the pest or weed control at 500 g/ha [1, 8] was 80% and the pest or weed control at 62 g/ha [1, 7] was 40%. For the same compound, the pest or weed control at 250 g/ha [1, 8] was 70%, the pest or weed control at 62 g/ha ([1]; pre-emergence, Preemergence, scale 0 to 100, 0 no effect, 100 complete control, read-out: Plant response rating, Surinam Grass) was 0% and the pest or weed control at 125 g/ha [1, 9] was 100%. It also gave a pest or weed control at 250 g/ha [1, 9] of 100%, a pest or weed control at 500 g/ha [1, 9] of 100% and a pest or weed control at 62 g/ha ([2]; post-emergence, Postemergence, 62 g ai/ha, scale 0 to 100 (0 no effect, 100 complete control), read-out: Cocklebur plant response rating) of 80%. The pest or weed control at 125 g/ha ([2]; post-emergence, Postemergence, scale 0 to 100 (0 no effect, 100 complete control), read-out: Cocklebur plant response rating) was 100%, the pest or weed control at 250 g/ha [2, 10] was 100% and the pest or weed control at 500 g/ha [2, 10] was 100%. It also gave a pest or weed control at 125 g/ha [2, 11] of 85%, a pest or weed control at 250 g/ha [2, 11] of 100% and a pest or weed control at 500 g/ha [2, 11] of 100%. It also gave a pest or weed control at 62 g/ha ([3]; 62 g ai/ha, scale 0 to 100, 0 no effect, 100 complete control) of 20%, a pest or weed control at 125 g/ha ([3]; 125 g ai/ha, scale 0 to 100) of 40% and a pest or weed control at 250 g/ha ([3]; 250 g ai/ha, scale 0 to 100) of 100%. For the same compound, the pest or weed control at 500 g/ha ([3]; 500 g ai/ha, scale 0 to 100) was 100%, the pest or weed control at 62 g/ha [4, 12] was 60% and the pest or weed control at 125 g/ha [4, 12] was 80%. The pest or weed control at 250 g/ha [4, 13] was 95%, the pest or weed control at 500 g/ha [4, 13] was 100% and the pest or weed control at 62 g/ha ([4]; pre-emergence, Preemergence, scale 0 to 100, 0 no effect, 100 complete control, read-out: Plant response rating, Ragweed) was 100%. For the same compound, the pest or weed control at 125 g/ha [4, 14] was 100%, the pest or weed control at 250 g/ha [4, 14] was 100% and the pest or weed control at 500 g/ha [4, 14] was 100%. The Corn plant response rating (crop injury, 0 = no effect, 100 = complete kill) at 62 g/ha (corn (Zea mays); [15]) was 0%, the Corn plant response rating (crop injury, 0 = no effect, 100 = complete kill) at 125 g/ha (corn (Zea mays); [15]) was 20% and the Corn plant response rating (crop injury, 0 = no effect, 100 = complete kill) at 250 g/ha (corn (Zea mays); [16]) was 70%. For the same compound, the Corn plant response rating (crop injury, 0 = no effect, 100 = complete kill) at 500 g/ha (corn (Zea mays); [16]) was 90%, the Corn plant response rating (crop injury, 0 = no effect, 100 = complete kill) at 62 g/ha (corn (Zea mays); pre-emergence, Preemergence, scale 0 to 100, 0 no effect, 100 complete control, read-out: Plant response rating, Corn) was 0% and the Corn plant response rating (crop injury, 0 = no effect, 100 = complete kill) at 125 g/ha (corn (Zea mays); pre-emergence, Preemergence, scale 0 to 100, read-out: Plant response rating, Corn) was 0%. The Corn plant response rating (crop injury, 0 = no effect, 100 = complete kill) at 250 g/ha (corn (Zea mays); [17]) was 10%, the Corn plant response rating (crop injury, 0 = no effect, 100 = complete kill) at 500 g/ha (corn (Zea mays); [17]) was 75% and the pest or weed control at 62 g/ha [5, 18] was 60%. It also gave a pest or weed control at 125 g/ha [5, 18] of 65%, a pest or weed control at 250 g/ha [5, 19] of 70% and a pest or weed control at 500 g/ha [5, 19] of 75%. The pest or weed control at 62 g/ha ([5]; pre-emergence, Preemergence, scale 0 to 100, 0 no effect, 100 complete control, read-out: Plant response rating, Crabgrass) was 0%, the pest or weed control at 125 g/ha [5, 20] was 0% and the pest or weed control at 250 g/ha [5, 20] was 0%. For the same compound, the pest or weed control at 500 g/ha [5, 20] was 0%, the pest or weed control at 62 g/ha ([6]; 62 g ai/ha) was 0% and the pest or weed control at 125 g/ha ([6]; 125 g ai/ha) was 0%.
